In patent US11457631B2, “Antimicrobial compounds and methods of use” (AEQUOR, INC., priority 2016, dated 2022):

Legend:
Format in all cases: cell-based, Staphylococcus aureus
[1] = tested on: S. aureus ATCC 25923; assay: Minimum Inhibitory Concentration (MIC), CLSI M07-A9 modified for 96 well plates, planktonic bacteria; details: overnight incubation
Protocol: (§1) Antibacterial and antibiofilm assay were performed on human pathogens and industrial microorganisms associated with contamination: Staphylococcus aureus (ATCC 25923 and ATCC 12600), S. epidermidis (ATCC 12228 and ATCC 14990), Pseudomonas aeruginosa (ATCC 27853), E. coli (ATCC 25922), C. albicans ATCC 18804), oral flora bacteria Streptococcus mutans (ATCC 25175) and S. gordonii (ATCC 33399), and/or marine biofilm former Cobetia marina (ATCC 25374).
(§2) Antibacterial assays were performed on planktonic bacteria to determine the Minimum Inhibitory Concentrations (MICs) and Minimum Bactericidal Concentrations (MBCs) for the compounds. MICs are defined as the lowest concentration of an antimicrobial that will inhibit the visible growth of a microorganism after overnight incubation. The MICs were determined using the standard CLSI Method M07-A9 for Dilution Antimicrobial Susceptibility Tests for Bacteria That Grow Aerobically modified for 96 well plates. MBCs are the lowest concentration of antimicrobial that kill the organism. MBCs were determined using the standard CLSI Method M26-A for Determining Bactericidal Activity of Antimicrobial Agents modified for 96 well plates.
(§3) A selection of the compounds were used in the above assays against S. aureus (ATCC 25923).

[2] = tested on: S. aureus ATCC 25923; assay: Minimum Bactericidal Concentration (MBC), CLSI M26-A modified for 96 well plates; details: planktonic
Protocol: as §1, §2, §3

[3] = tested on: S. aureus ATCC 25923; assay: Minimum Biofilm Inhibition Concentration (MBIC), 96-well microplate static biofilm assay
Protocol: as §1
Antibiofilm assays were performed to determine the prevention and removal of biofilm. The 96-well microplate assay was used to determine the Minimum Biofilm Inhibition Concentration (MBIC) (Merritt, et al. 2005. Growing and analyzing static biofilms. Curr Protoc Microbiol. Chapter 1, Unit 1.)
The MBIC assay is defined as the lowest concentration of the compound that will inhibit the biofilm. The ASTM E2799-12 Standard Test Method for Testing Pseudomonas Biofilm using the Minimum Biofilm Eradicating Concentration (MBEC) assay was used to determine biofilm removal. The MBEC assay is defined as the lowest concentration of compound that will eradicate the biofilm. The qualitative MBEC is determined using a microplate reader at absorbance 630 nm and the quantitative MBEC is determined using log10 reduction.
as §3

[4] = tested on: S. aureus ATCC 25923; assay: Minimum Biofilm Eradicating Concentration (MBEC) assay, ASTM E2799-12; details: biofilm eradication
Protocol: Antibacterial and antibiofilm assay were performed on human pathogens and industrial microorganisms associated with contamination: Staphylococcus aureus (ATCC 25923 and ATCC 12600), S. epidermidis (ATCC 12228 and ATCC 14990), Pseudomonas aeruginosa (ATCC 27853), E. coli (ATCC 25922), C. albicans ATCC 18804), oral flora bacteria Streptococcus mutans (ATCC 25175) and S. gordonii (ATCC 33399), and/or marine biofilm former Cobetia marina (ATCC 25374). The MBIC assay is defined as the lowest concentration of the compound that will inhibit the biofilm. The ASTM […]-12 Standard Test Method for Testing Pseudomonas Biofilm using the Minimum Biofilm Eradicating Concentration (MBEC) assay was used to determine biofilm removal. The MBEC assay is defined as the lowest concentration of compound that will eradicate the biofilm. The qualitative MBEC is determined using a microplate reader at absorbance 630 nm and the quantitative MBEC is determined using log10 reduction. A selection of the compounds were used in the above assays against S. aureus (ATCC 25923).

- MIC [1]: 0.25 % w/v
Structure (SMILES): CCCCNP(=O)(O)OC(C)=O [X is NH2; A is (CH2)3CH3, acetic (1-butyl phosphoramidic) anhydride]
- MBC [2]: 0.25 % w/v
- MBIC [3]: 0.25 % w/v
- MBEC [4]: 0.25 % w/v
